Experiments:
[1] = Absorption measurement of the compound with spectrophotometer UV-3150; format: physicochemical; settings: in 2-butanone
Description: The compound (I) preferably satisfies the following formula (a). ε(420)/ε(400)≤0.4 (a)
The smaller value offers a transparent compound with less yellowness.
Also, the compound (I) preferably satisfies the following formulae (b) and (c) in addition to the formula (a). λmax<420 nm (b) ε(400)≥40 (c)
In the formula (b), λmax denotes maximum absorption wavelength of the compound (I). In the formula (c), ε(400) denotes gram absorption coefficient at a wavelength of 400 nm, and the unit of gram absorption coefficient is defined by L/(g·cm). […]
A compound UVA-R01 was synthesized in accordance with the method described in Patent Literature (DE101 09 243 A1). Refinement was performed by subjecting the solution to column chromatography (silica gel). When absorption maximum wavelength (λmax) was measured by using a spectrophotometer UV-3150 (manufactured by SHIMADZU CORPORATION), the results were such that λmax=389 nm (in 2-butanone), ε(400) was 146 L/(g·cm), and ε(420)/ε(400) was 0.0122. Then, the following peaks were observed through ^1H-NMR analysis, so that it was confirmed that the compound UVA-R01 was produced.

[2] = Solubility test in various solvents; format: physicochemical; settings: room temperature 25±3° C., visually confirmed 60 minutes after preparation; for Solubility in various solvents MEK: 2-butanone; for Solubility in various solvents IPA: 2-propanol; for Solubility in various solvents CHF: chloroform; for Solubility in various solvents EAC: ethyl acetate; for Solubility in various solvents PGMEA: propylene glycol monomethyl ether acetate; for Solubility in various solvents TOL: toluene
Description: The compound UVA-01 (50 mg) obtained by the method described in Synthesis Example 1 was mixed with 450 mg of the solvent described below to prepare a 10% by mass solution. […] Also, 50 mg of UVA-01 was mixed with 950 mg of the solvent described below to prepare a 5% by mass solution, and the same solubility test was performed. The solubility of the compound UVA-01 was visually confirmed in 60 minutes after preparation of each solution. Incidentally, the criteria for evaluation of the test results are as follows.
A: soluble by 10% by mass or more
B: soluble by 5% by mass or more and less than 10% by mass
C: soluble by less than 5% by mass
2-butanone (manufactured by KANTO CHEMICAL CO., INC., hereinafter abbreviated as MEK) 2-propanol (manufactured by NACALAI TESQUE, INC., hereinafter abbreviated as IPA) toluene (manufactured by NACALAI TESQUE, INC., hereinafter abbreviated as TOL) ethyl acetate (manufactured by NACALAI TESQUE, INC., hereinafter abbreviated as EAC) chloroform (manufactured by KANTO CHEMICAL CO., INC., hereinafter abbreviated as CHF) propylene glycol monomethyl ether acetate (manufactured by Tokyo Chemical Industry Co., Ltd., hereinafter abbreviated as PGMEA) The solubility test was performed in the same manner as in Example 1 except for replacing UVA-01 with UVA-02 or UVA-03.
The solubility test was performed in the same manner as in Example 1 except for replacing UVA-01 with UVA-R01.

absorption maximum wavelength (λmax) [1] [nm] | ε(400), gram absorption coefficient at a wavelength of 400 nm [1] [L/g/cm] | ε(420)/ε(400) [1] | Solubility in various solvents MEK [2] | Solubility in various solvents IPA [2] | Solubility in various solvents CHF [2] | Solubility in various solvents EAC [2] | Solubility in various solvents PGMEA [2] | Solubility in various solvents TOL [2] | Structure (SMILES)
389 | 125 | 0.0153 | A (soluble by 10% by mass or more) | A (soluble by 10% by mass or more) | A (soluble by 10% by mass or more) | A (soluble by 10% by mass or more) | A (soluble by 10% by mass or more) | A (soluble by 10% by mass or more) | CCOCCOC(=O)/C(C#N)=C\C=C1/CCCN1C [UVA-01]
388 | 95.2 | 0.0161 | A (soluble by 10% by mass or more) | A (soluble by 10% by mass or more) | A (soluble by 10% by mass or more) | A (soluble by 10% by mass or more) | A (soluble by 10% by mass or more) | A (soluble by 10% by mass or more) | COCCOCCOCCOC(=O)/C(C#N)=C\C=C1/CCCN1C [UVA-02]
389 | 146 | 0.0122 | C (soluble by less than 5% by mass) | C (soluble by less than 5% by mass) | C (soluble by less than 5% by mass) | C (soluble by less than 5% by mass) | C (soluble by less than 5% by mass) | C (soluble by less than 5% by mass) | CCOC(=O)/C(C#N)=C\C=C1/CCCN1C [UVA-R01, reference compound]

Structure (SMILES) | absorption maximum wavelength (λmax) [1] [nm] | ε(400), gram absorption coefficient at a wavelength of 400 nm [1] [L/g/cm] | ε(420)/ε(400) [1] | Solubility in various solvents MEK [2] | Solubility in various solvents IPA [2] | Solubility in various solvents CHF [2] | Solubility in various solvents EAC [2] | Solubility in various solvents PGMEA [2] | Solubility in various solvents TOL [2]
CCCCC(CC)COC(=O)/C(C#N)=C\C=C1/CCCN1C (stereo not drawn) [UVA-03] | 389 | 108 | 0.0132 | A (soluble by 10% by mass or more) | A (soluble by 10% by mass or more) | A (soluble by 10% by mass or more) | A (soluble by 10% by mass or more) | B (soluble by 5% by mass or more and less than 10% by mass) | A (soluble by 10% by mass or more)

— patent US10029982B2, “Light absorptive compound, polymer composition containing the compound, polymer film, and cured layer” (Sumitomo Chemical Company, Limited, priority 2015, dated 2018)
